This passage reports Emax and EC50 results from patent US20250101041A1, “POSITIVE ALLOSTERIC MODULATORS OF THE MUSCARINIC ACETYLCHOLINE RECEPTOR M4” (Vanderbilt University, priority 2022, published 2025).

The target in the test is T1, human mAChR M4 (Homo sapiens, UniProt P08173).
T1 construct: expressed in transfected cells; host or cells: CHO-K1 (American Type Culture Collection), stably expressing hM4 and Gqi5
T1 sequence (P08173 1-479): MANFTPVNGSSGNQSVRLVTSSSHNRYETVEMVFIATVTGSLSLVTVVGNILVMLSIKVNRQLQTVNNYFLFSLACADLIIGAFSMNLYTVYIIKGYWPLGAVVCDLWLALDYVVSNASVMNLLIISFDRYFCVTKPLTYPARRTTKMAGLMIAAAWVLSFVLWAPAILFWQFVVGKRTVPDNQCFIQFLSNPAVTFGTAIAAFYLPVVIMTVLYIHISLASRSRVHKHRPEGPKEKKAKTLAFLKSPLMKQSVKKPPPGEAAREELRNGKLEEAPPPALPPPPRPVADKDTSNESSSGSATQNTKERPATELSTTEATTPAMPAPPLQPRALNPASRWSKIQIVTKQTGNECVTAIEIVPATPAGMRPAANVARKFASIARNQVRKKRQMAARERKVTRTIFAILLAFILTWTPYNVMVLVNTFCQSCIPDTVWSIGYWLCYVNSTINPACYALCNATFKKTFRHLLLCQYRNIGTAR
Briefly: mAChR M4 cell-based functional assay: calcium mobilization (Fluo-4, FDSS), potentiation of EC20 acetylcholine response in hM4-Gqi5 CHO-K1 cells. Conditions: human M4; for Emax at 30 µM: CHO-K1, % ACh maximum at 30 μM; for EC50: potentiation of EC20 acetylcholine response, calcium mobilization. The method in brief:
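Readout is the fluorescence-ratio rise at 1 Hz on FDSS, with PAM activity taken as concentration-dependent enhancement of the EC20 acetylcholine response, fitted four-parameter for EC50/Emax. hM4-Gqi5 CHO-K1 cells carried Fluo-4 AM dye; test compounds (11 points, 1:3) preceded EC20 acetylcholine additions at 144 s and 230 s.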
On the technique in general: Calcium flux is commonly read through the fluorescence of an indicator in the cells.

As to `Cc1cc(=O)n2nc(N3CCc4ncc(-c5ccccc5Cl)cc4C3)c(C)c(C)c2n1` [Compound 1-278, 7-(3-(2-chlorophenyl)-7,8-dihydro-1,6-naphthyridin-6(5H)-yl)-2,8,9-trimethyl-4H-pyrimido[1,2-b]pyridazin-4-one], the Emax (in general, the size of the effect at its maximum, as opposed to the concentration needed) at 30 µM is 81%.

As for `Cc1cc(F)c(F)cc1-c1cnc2c(c1)CN(c1nn3c(=O)ccnc3cc1C)CC2` [Compound 1-445, 7-(3-(4,5-difluoro-2-methylphenyl)-7,8-dihydro-1,6-naphthyridin-6(5H)-yl)-8-methyl-4H-pyrimido[1,2-b]pyridazin-4-one], the maximal effect (Emax) at 30 µM came to 85% and the EC50 – broadly, the concentration at which the effect is half-maximal – was 78 nM.

As for `COCc1cc(=O)n2nc(N3CCc4ncc(-c5ccccc5C)cc4C3)c(C)cc2n1` [Compound 1-337, 2-(methoxymethyl)-8-methyl-7-(3-(o-tolyl)-7,8-dihydro-1,6-naphthyridin-6(5H)-yl)-4H-pyrimido[1,2-b]pyridazin-4-one], the maximal response (Emax) at 30 µM turned out to be 76% and the EC50 was determined as 331 nM.

With `[2H]C1([2H])Cc2ncc(Nc3ccncc3F)cc2C([2H])([2H])N1c1nn2c(=O)ccnc2cc1C` [Compound 2-164, 7-(3-((3-fluoropyridin-4-yl)amino)-7,8-dihydro-1,6-naphthyridin-6(5H)-yl-5,5,7,7-d4)-8-methyl-4H-pyrimido[1,2-b]pyridazin-4-one], the Emax at 30 µM was found to be 94% and the EC50 is 7 nM.

Take `Cc1cc(F)c(F)c(-c2cnc3c(c2)CN(c2nn4c(=O)cc(C)nc4c(C)c2C)CC3)c1` [Compound 1-272, 7-(3-(2,3-difluoro-5-methylphenyl)-7,8-dihydro-1,6-naphthyridin-6(5H)-yl)-2,8,9-trimethyl-4H-pyrimido[1,2-b]pyridazin-4-one]: the Emax at 30 µM worked out at 82% and the EC50 was 810 nM.

In the case of `[2H]C1([2H])Cc2ncc(Nc3ccncc3C)cc2C([2H])([2H])N1c1nn2c(=O)ccnc2cc1C` [Compound 2-165, 8-methyl-7-(3-((3-methylpyridin-4-yl)amino)-7,8-dihydro-1,6-naphthyridin-6(5H)-yl-5,5,7,7-d4)-4H-pyrimido[1,2-b]pyridazin-4-one], the Emax at 30 µM was found to be 66% and the EC50 came out at 127 nM.

With `COc1ncc(-c2cnc3c(c2)CN(c2nn4c(=O)cc(C(F)F)nc4c(C)c2C)CC3)cc1Cl` [Compound 1-168, 7-(3-(5-chloro-6-methoxypyridin-3-yl)-7,8-dihydro-1,6-naphthyridin-6(5H)-yl)-2-(difluoromethyl)-8,9-dimethyl-4H-pyrimido[1,2-b]pyridazin-4-one], the Emax at 30 µM was 72% and the EC50 is 2310 nM.

In the case of `Cc1c(N2CCc3ncc(-c4cnn(C5CCOCC5)c4)cc3C2)nn2c(=O)ccnc2c1C` [Compound 1-192, 8,9-dimethyl-7-(3-(1-(tetrahydro-2H-pyran-4-yl)-1H-pyrazol-4-yl)-7,8-dihydro-1,6-naphthyridin-6(5H)-yl)-4H-pyrimido[1,2-b]pyridazin-4-one], the Emax at 30 µM amounted to 64% and the EC50 was 139 nM.

For `Cc1cc(=O)n2nc(N3CCc4ncc(N5CC6CCC(C5)O6)cc4C3)c(C)c(C)c2n1` [Compound 2-43, 7-(3-(8-oxa-3-azabicyclo[3.2.1]octan-3-yl)-7,8-dihydro-1,6-naphthyridin-6(5H)-yl)-2,8,9-trimethyl-4H-pyrimido[1,2-b]pyridazin-4-one], the Emax at 30 µM is 76% and the EC50 amounted to 310 nM.

With `Cc1cc(-c2cnc3c(c2)CN(c2nn4c(=O)ccnc4cc2C)CC3)n(C)n1` [Compound 1-390, 7-(3-(1,3-dimethyl-1H-pyrazol-5-yl)-7,8-dihydro-1,6-naphthyridin-6(5H)-yl)-8-methyl-4H-pyrimido[1,2-b]pyridazin-4-one], the Emax at 30 µM worked out at 98% and the EC50 came to 486 nM.

Take `Cc1cc2nccc(=O)n2nc1N1CCc2ncc(Nc3cccc(F)c3)cc2C1` [Compound 2-79, 7-(3-((3-fluorophenyl)amino)-7,8-dihydro-1,6-naphthyridin-6(5H)-yl)-8-methyl-4H-pyrimido[1,2-b]pyridazin-4-one]: the Emax at 30 µM is 99% and the EC50 stood at 20 nM.

`Cc1cncc(-c2cnc3c(c2)CN(c2nn4c(=O)cc(C(F)F)nc4c(C)c2C)CC3)c1` [Compound 1-119, 2-(difluoromethyl)-8,9-dimethyl-7-(3-(5-methylpyridin-3-yl)-7,8-dihydro-1,6-naphthyridin-6(5H)-yl)-4H-pyrimido[1,2-b]pyridazin-4-one]: the Emax at 30 µM stood at 85%.

Consider `Cc1cc2nccc(=O)n2nc1N1CCc2ncc(-c3ccc(OC(F)F)nc3)cc2C1` [Compound 1-315, 7-(3-(6-(difluoromethoxy)pyridin-3-yl)-7,8-dihydro-1,6-naphthyridin-6(5H)-yl)-8-methyl-4H-pyrimido[1,2-b]pyridazin-4-one], for which the Emax at 30 µM is 71% and the EC50 came out at 448 nM.

For the compound `COCc1cc(=O)n2nc(N3CCc4ncc(-c5ccc(C)o5)cc4C3)c(C)cc2n1` [Compound 1-372, 2-(methoxymethyl)-8-methyl-7-(3-(5-methylfuran-2-yl)-7,8-dihydro-1,6-naphthyridin-6(5H)-yl)-4H-pyrimido[1,2-b] pyridazin-4-one], the Emax at 30 µM was 65% and the concentration for a half-maximal effect (EC50) was found to be 298 nM.

Take `Cc1cc2nc(C(F)F)cc(=O)n2nc1N1CCc2ncc(Nc3ccncc3F)cc2C1` [Compound 2-159, 2-(difluoromethyl)-7-(3-((3-fluoropyridin-4-yl)amino)-7,8-dihydro-1,6-naphthyridin-6(5H)-yl)-8-methyl-4H-pyrimido[1,2-b]pyridazin-4-one]: the Emax at 30 µM amounted to 94% and the EC50 is 1 nM.

Turning to `COc1c(F)cc(-c2cnc3c(c2)CN(c2nn4c(=O)ccnc4cc2C)CC3)c(C)c1F` [Compound 1-444, 7-(3-(3,5-difluoro-4-methoxy-2-methylphenyl)-7,8-dihydro-1,6-naphthyridin-6(5H)-yl)-8-methyl-4H-pyrimido [1,2-b]pyridazin-4-one], the Emax at 30 µM came out at 93% and the half-maximal effective concentration (EC50) is 131 nM.

On to `Cc1cc2nccc(=O)n2nc1N1CCc2ncc(-c3cc(F)ccn3)cc2C1` [Compound 1-354, 7-(3-(4-fluoropyridin-2-yl)-7,8-dihydro-1,6-naphthyridin-6(5H)-yl)-8-methyl-4H-pyrimido [1,2-b]pyridazin-4-one], for which the Emax at 30 µM was 63% and the EC50 came to 2540 nM.

Consider `Cc1cc(F)ncc1-c1cnc2c(c1)CN(c1nn3c(=O)ccnc3cc1C)CC2` [Compound 1-398, 7-(3-(6-fluoro-4-methylpyridin-3-yl)-7,8-dihydro-1,6-naphthyridin-6(5H)-yl)-8-methyl-4H-pyrimido[1,2-b]pyridazin-4-one], for which the Emax at 30 µM turned out to be 93% and the EC50 was 169 nM.

With `Cc1cc2nccc(=O)n2nc1N1CCc2ncc(Nc3ccccc3Cl)cc2C1` [Compound 2-67, 7-(3-((2-chlorophenyl)amino)-7,8-dihydro-1,6-naphthyridin-6(5H)-yl)-8-methyl-4H-pyrimido[1,2-b]pyridazin-4-one], the Emax at 30 µM came out at 95% and the EC50 was found to be 25 nM.

With `Cc1cc2nccc(=O)n2nc1N1CCc2ncc(-c3ccc(C4CC4)nc3)cc2C1` [Compound 1-67, 7-(3-(6-cyclopropylpyridin-3-yl)-7,8-dihydro-1,6-naphthyridin-6(5H)-yl)-8-methyl-4H-pyrimido[1,2-b]pyridazin-4-one], the Emax at 30 µM stood at 80% and the EC50 came to 328 nM.

With `Cc1cc2nc(C(F)F)cc(=O)n2nc1N1CCc2ncc(N3CCOc4ncccc43)cc2C1` [Compound 2-29, 2-(difluoromethyl)-7-(3-(2,3-dihydro-1H-pyrido[2,3-b][1,4]oxazin-1-yl)-7,8-dihydro-1,6-naphthyridin-6(5H)-yl)-8-methyl-4H-pyrimido[1,2-b]pyridazin-4-one], the Emax at 30 µM was determined as 90% and the EC50 was determined as 13 nM.

In the case of `Cc1ccc(-c2cnc3c(c2)CN(c2nn4c(=O)cc(C)nc4cc2C)CC3)c(C)c1` [Compound 1-292, 7-(3-(2,4-dimethylphenyl)-7,8-dihydro-1,6-naphthyridin-6(5H)-yl)-2,8-dimethyl-4H-pyrimido[1,2-b]pyridazin-4-one], the maximal effect (Emax) at 30 µM was 92% and the EC50 stood at 477 nM.

Consider `Cc1cc2nccc(=O)n2nc1N1CCc2ncc(Nc3cncc(Cl)c3)cc2C1` [Compound 2-142, 7-(3-((5-chloropyridin-3-yl)amino)-7,8-dihydro-1,6-naphthyridin-6(5H)-yl)-8-methyl-4H-pyrimido[1,2-b]pyridazin-4-one], for which the Emax at 30 µM is 66% and the EC50 came to 182 nM.

For the compound `Cc1cc2ncc(N3CCOCC3)c(=O)n2nc1N1CCc2ncc(C(F)(F)F)cc2C1` [Compound 1-19, 8-Methyl-3-morpholino-7-(3-(trifluoromethyl)-7,8-dihydro-1,6-naphthyridin-6(5H)-yl)-4H-pyrimido[1,2-b]pyridazin-4-one], the Emax at 30 µM came to 70% and the 50% effective concentration (EC50) turned out to be 113 nM.
